These compounds were tested against T1, human CRTH2 (Homo sapiens, UniProt Q9Y5Y4) (assay: CRTH-2 binding assay (scintillation proximity assay, inhibition of 3H-PGD2 binding)). Conditions: inhibition of 3H-PGD2 (3.6 nM) binding to HEK 293EBNA-hCRTH2 membranes; Ki calculated from IC50.
T1 sequence (Q9Y5Y4 1-395): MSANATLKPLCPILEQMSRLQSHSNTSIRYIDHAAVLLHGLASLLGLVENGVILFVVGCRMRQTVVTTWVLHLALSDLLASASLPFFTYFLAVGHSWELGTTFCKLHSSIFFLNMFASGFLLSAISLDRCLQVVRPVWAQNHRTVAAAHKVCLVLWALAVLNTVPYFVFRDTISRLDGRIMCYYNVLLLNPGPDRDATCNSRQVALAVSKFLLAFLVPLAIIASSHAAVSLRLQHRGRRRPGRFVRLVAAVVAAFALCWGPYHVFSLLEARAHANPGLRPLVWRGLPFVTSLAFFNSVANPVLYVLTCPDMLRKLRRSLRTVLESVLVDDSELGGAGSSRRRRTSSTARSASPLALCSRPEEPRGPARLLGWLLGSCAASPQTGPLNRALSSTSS
Set-up: expressed in transfected cells; host or cells: HEK 293EBNA-hCRTH2 (membrane preparation)
Description: A CRTH2 binding assay was developed to measure the ability of compounds to inhibit the binding of PGD2 to human CRTH2 using a scintillation proximity assay.
Membranes containing hCRTH2 receptors were prepared from HEK 293EBNA-hCRTH2 cells (a HEK 293EBNA cell line stably expressing human CRTH2). The cells were grown to confluency, harvested and washed with PBS. The cells were resuspended in 10 mM Hepes pH 7.4, 1 mM EDTA and protease inhibitors and incubated for 30 min on ice. The cells were homogenized and centrifuged for 10 min at 1000×g. The supernate was centrifuged for 30 min at 100,000×g and the membrane pellet was then resusupended in 10 mM Hepes pH 7.4 and 1 mM EDTA. The protein concentration of the membrane preparation was determined by Bradford assay (Bio-Rad).
The ability of compounds to inhibit the interaction of PGD2 to human CRTH2 was determined at seven compound concentrations. Compounds were serially diluted in DMSO then diluted into CRTH2 buffer without glycerol (10 mM Hepes pH 7.4, 1 mM EDTA, 10 mM MnCl2) to six times the final desired concentration. 20 μL of the diluted compounds were transferred into non-surface binding 96 well plates (Corning). Each concentration was done in triplicate. In addition to test compounds, each plate contained 12 control wells. Six of these wells contained 20 μL of CRTH2 buffer without glycerol. These wells were used to measure total binding. Six wells contained 20 μL of CRTH2 buffer without glycerol plus 1.5 mM indomethacin. These wells were used to measure non-specific binding. Next, HEK 293EBNA-hCRTH2 membranes were resuspended in CRTH2 buffer with glycerol (10 mM Hepes pH 7.4, 1 mM EDTA, 10 mM MnCl2, 25% glycerol) so that the final concentration was approximately 20 μg protein/100 μL. Polylysine coated yttrium silicate SPA beads (Amershamn) were added to the membrane mix to a concentration of 0.4 mg/100 μL and finally ^3H-PGD2 was added to the membrane/SPA bead mix to 3.6 nM. 100 μL of the membrane/SPA bead/^3H-PGD2 mix was added to each well of the non-surface binding plates containing the diluted compound plus controls. The plates were incubated for 2 hours at room temperature with shaking and then the plates were counted on a Microbeta scintillation counter (Perkin Elmer) for 1 min per well.
IC50 values were determined from the experimental results by nonlinear regression using Prism 4.0 software. The IC50 values were then used in conjunction with the […] for hCRTH2 and the ^3H-PGD2 concentration used in the experiment to calculate the Ki for each compound.

`O=C(O)Cn1cc(C2NS(=O)(=O)c3ccccc32)c2ccccc21` (stereo not drawn) [Example 1, [3-(1,1-Dioxo-2,3-dihydro-1λ^6-benzo[d]isothiazol-3-yl)-indol-1-yl]-acetic acid] and `Cc1c(C2NS(=O)(=O)c3ccccc32)c2ccccc2n1CC(=O)O` (stereo not drawn) [Example 3, [3-(1,1-Dioxo-2,3-dihydro-1H-1λ^6-benzo[d]isothiazol-3-yl)-2-methyl-indol-1-yl]-acetic acid] cannot be ordered by Ki: under 10000 nM for the first, under 10000 nM for the second.

`Cc1ccc2c(c1)c(C1NS(=O)(=O)c3ccccc31)c(C)n2CC(=O)O` (stereo not drawn) [Example 7, [3-(1,1-Dioxo-2,3-dihydro-1H-1λ^6-benzo[d]isothiazol-3-yl)-2,5-dimethyl-indol-1-yl]-acetic acid] and `COCCCN1C(c2cn(CC(=O)O)c3ccc(C)cc23)c2ccccc2S1(=O)=O` (stereo not drawn) [Example 52, {3-[2-(3-Methoxy-propyl)-1,1-dioxo-2,3-dihydro-1H-1λ^6-benzo[d]isothiazol-3-yl]-5-methyl-indol-1-yl}-acetic acid] cannot be ordered by Ki: under 10000 nM for the first, under 10000 nM for the second.

`Cc1c(-c2nn(Cc3nc4ccccc4s3)c(=O)c3ccccc23)c2cc(Cl)ccc2n1CC(=O)O` [Example 26, [3-(3-Benzothiazol-2-ylmethyl-4-oxo-3,4-dihydro-phthalazin-1-yl)-5-chloro-2-methyl-indol-1-yl]-acetic acid] and `Cc1c(-c2ccc(=O)n(Cc3ccccc3)n2)c2cc(Cl)ccc2n1CC(=O)O` [Example 21, [3-(1-Benzyl-6-oxo-1,6-dihydro-pyridazin-3-yl)-5-chloro-2-methyl-indol-1-yl]-acetic acid] cannot be ordered by Ki: under 100 nM for the first, under 100 nM for the second.

`Cc1c(C2=NN(CCc3ccccc3)S(=O)(=O)c3ccccc32)c2cc(F)ccc2n1CC(=O)O` [Example 87, {3-[2-phenethyl-1,1-dioxo-1,2-dihydro-1λ^6-benzo[e][1,2,3]thiadiazin-4-yl]-5-fluoro-2-methyl-indol-1-yl}-acetic acid] and `Cc1c(C2=NN(CCOc3ccccc3)S(=O)(=O)c3ccccc32)c2cc(F)ccc2n1CC(=O)O` [Example 88, {3-[2-(2-Phenoxy-ethyl)-1,1-dioxo-1,2-dihydro-1λ^6-benzo[e][1,2,3]thiadiazin-4-yl]-5-fluoro-2-methyl-indol-1-yl}-acetic acid] cannot be ordered by Ki: under 1000 nM for the first, under 1000 nM for the second.

`Cc1ccc2c(c1)c(C1c3ccccc3S(=O)(=O)N1Cc1nc3ccccc3s1)cn2CC(=O)O` (stereo not drawn) [Example 48, [3-(2-Benzothiazol-2-ylmethyl-1,1-dioxo-2,3-dihydro-1H-1λ^6-benzo[d]isothiazol-3-yl)-5-methyl-indol-1-yl]-acetic acid] and `Cc1ccc2c(c1)c(C1c3ccccc3S(=O)(=O)N1Cc1cccc(C(F)(F)F)c1)cn2CC(=O)O` (stereo not drawn) [Example 51, {3-[1,1-Dioxo-2-(3-trifluoromethyl-benzyl)-2,3-dihydro-1H-1λ^6-benzo[d]isothiazol-3-yl]-5-methyl-indol-1-yl}-acetic acid] cannot be ordered by Ki: under 1000 nM for the first, under 10000 nM for the second.

`CN1N=C(c2cn(CC(=O)O)c3ccccc23)c2ccccc2S1(=O)=O` [Example 18, [3-(2-Methyl-1,1-dioxo-1,2-dihydro-1λ6-benzo[e][1,2,3]thiadiazin-4-yl)-indol-1-yl]-acetic acid] and `CC(C)CCN1C(c2cn(CC(=O)O)c3ccccc23)c2ccccc2S1(=O)=O` (stereo not drawn) [Example 29, {3-[2-(3-Methyl-butyl)-1,1-dioxo-2,3-dihydro-1H-1λ^6-benzo[d]isothiazol-3-yl]-indol-1-yl}-acetic acid] cannot be ordered by Ki: under 10000 nM for the first, under 10000 nM for the second.

`Cc1c(C2=NN(Cc3ccc(OC(F)(F)F)cc3)S(=O)(=O)c3ccccc32)c2cc(F)ccc2n1CC(=O)O` [Example 84, {3-[2-(4-Trifluoromethoxy-benzyl)-1,1-dioxo-1,2-dihydro-1λ^6-benzo[e][1,2,3]thiadiazin-4-yl]-5-fluoro-2-methyl-indol-1-yl}-acetic acid] and `Cc1c(C2=NN(Cc3cccc(F)c3)S(=O)(=O)c3ccccc32)c2cc(F)ccc2n1CC(=O)O` [Example 82, {3-[2-(3-Fluoro-benzyl)-1,1-dioxo-1,2-dihydro-1λ^6-benzo[e][1,2,3]thiadiazin-4-yl]-5-fluoro-2-methyl-indol-1-yl}-acetic acid] cannot be ordered by Ki: under 1000 nM for the first, under 100 nM for the second.

`Cc1c(C2=NN(C(C)c3ccccc3)S(=O)(=O)c3ccccc32)c2cc(F)ccc2n1CC(=O)O` (stereo not drawn) [Example 86, {3-[2-(1-phenyl-ethyl)-1,1-dioxo-1,2-dihydro-1λ^6-benzo[e][1,2,3]thiadiazin-4-yl]-5-fluoro-2-methyl-indol-1-yl}-acetic acid] and `Cc1c(C2=NN(CCc3ccccc3)S(=O)(=O)c3ccccc32)c2ccccc2n1CC(=O)O` [Example 19, [3-(1,1-Dioxo-2-phenethyl-1,2-dihydro-1λ^6-benzo[e][1,2,3]thiadiazin-4-yl)-2-methyl-indol-1-yl]-acetic acid] cannot be ordered by Ki: under 100 nM for the first, under 100 nM for the second.

`COc1ccc2c(c1)c(C1c3ccccc3S(=O)(=O)N1Cc1ccc(C#N)cc1)cn2CC(=O)O` (stereo not drawn) [Example 57, {3-[2-(4-Cyano-benzyl)-1,1-dioxo-2,3-dihydro-1H-1λ^6-benzo[d]isothiazol-3-yl]-5-methoxy-indol-1-yl}-acetic acid] and `O=C(O)Cn1cc(C2c3ccccc3S(=O)(=O)N2Cc2csc(-c3ccc(Cl)cc3)n2)c2ccccc21` (stereo not drawn) [Example 34, (3-{2-[2-(4-Chloro-phenyl)-thiazol-4-ylmethyl]-1,1-dioxo-2,3-dihydro-1H-1λ^6-benzo[d]isothiazol-3-yl}-indol-1-yl)-acetic acid] cannot be ordered by Ki: under 10000 nM for the first, under 1000 nM for the second.

`Cc1noc(C)c1CN1C(c2cn(CC(=O)O)c3ccccc23)c2ccccc2S1(=O)=O` (stereo not drawn) [Example 35, {3-[2-(3,5-Dimethyl-isoxazol-4-ylmethyl)-1,1-dioxo-2,3-dihydro-1H-1λ^6benzo[d]isothiazol-3-yl]-indol-1-yl}-acetic acid] and `Cc1onc(-c2ccccc2)c1CN1C(c2c(C)n(CC(=O)O)c3ccccc23)c2ccccc2S1(=O)=O` (stereo not drawn) [Example 36, {2-Methyl-3-[2-(5-methyl-3-phenyl-isoxazol-4-ylmethyl)-1,1-dioxo-2,3-dihydro-1H-1λ^6-benzo[d]isothiazol-3-yl]-indol-1-yl}-acetic acid] cannot be ordered by Ki: under 100 nM for the first, under 100 nM for the second.

`Cc1c(C2(C)c3ccccc3S(=O)(=O)N2CCOc2ccccc2)c2ccccc2n1CC(=O)O` (stereo not drawn) [Example 67, {2-Methyl-3-[3-methyl-1,1-dioxo-2-(2-phenoxy-ethyl)-2,3-dihydro-1H-1-benzo[d]isothiazol-3-yl]-indol-1-yl}-acetic acid] and `Cc1c(C2c3ccccc3S(=O)(=O)N2CC2COc3ccccc3O2)c2ccccc2n1CC(=O)O` (stereo not drawn) [Example 41, {3-[2-(2,3-Dihydro-benzo[1,4]dioxin-2-ylmethyl)-1,1-dioxo-2,3-dihydro-1H-1λ^6-benzo[d]isothiazol-3-yl]-2-methyl-indol-1-yl}-acetic acid] cannot be ordered by Ki: under 1000 nM for the first, under 1000 nM for the second.

`Cc1c(C2=NN(Cc3ccccc3)C(=O)C3CC=CCC23)c2ccccc2n1CC(=O)O` (stereo not drawn) [Example 71, [3-(3-Benzyl-4-oxo-3,4,4a,5,8,8a-hexahydro-phthalazin-1-yl)-2-methyl-indol-1-yl]-acetic acid] and `O=C(O)Cn1cc(C2c3ccccc3S(=O)(=O)N2Cc2ccc3ccccc3n2)c2ccccc21` (stereo not drawn) [Example 30, [3-(1,1-Dioxo-2-quinolin-2-ylmethyl-2,3-dihydro-1H-1λ^6-benzo[d]isothiazol-3-yl)-indol-1-yl]-acetic acid] cannot be ordered by Ki: under 1000 nM for the first, under 10000 nM for the second.

Reference: patent publication US7981912B2, “Indole acetic acids exhibiting CRTH2 receptor antagonism and uses thereof” (Wyeth LLC, priority 2004, dated 2011)
